Laboratory results published in paper PMC8773409, “Tetrapeptides Modelled to the Androgen Binding Site of ZIP9 Stimulate Expression of Tight Junction Proteins and Tight Junction Formation in Sertoli Cells” (Biology, 2021).

How the values were obtained:
ZIP9 = ZIP9 protein immunofluorescence after siRNA silencing; assay type: cell-based, rat; conditions: ZIP9-siRNA-treated 93RS2 cells; n = 30, means ± SEM
Protocol: (§1) For visualization by immunofluorescence, the medium containing the primary antibody was replaced with PBS containing 1% BSA, 0.3% Triton X-100, and the secondary antibody (goat anti-rabbit IgG diluted at 1:500 in 2% FCS, 0.1 Triton X-100 in PBS) labeled with AlexaFluor 488 (Life Technologies, Darmstadt, Germany). This medium was removed by aspiration after 1 h at room temperature and cells were washed in PBS 3 times. All incubation steps with UV-sensitive reagents were carried out in the dark. An inverse Olympus IX81 microscope equipped with the corresponding fluorescence system (Olympus, Hamburg, Germany) was used to acquire images.
(§2) Fluorescence was measured according to the instructions of the ImageJ software program (freely available at http://rsbweb.nih.gov/ij/, accessed on 23 December 2021) according to the protocol provided (http://www.slu.se/PageFiles/388774/Pacho%20ImageJ¬¬%20-measuring-cell-fluo¬rescence.pdf, accessed on 23 December 2021). Only green fluorescence was considered. The fluorescence of 3 × 25 cells closest to the diagonals of photomicrographs from 3 independent experiments was considered for statistical analysis. […]
A total of 6 × 10^4 93RS2 cells were cultured in 2-cm wells of a 6-well plate for 24 h. […] The concentration of the extracted mRNA was quantified by the NanodropTM One spectrophotometer (Thermo Fisher Scientific, Schwerte, Germany). […]

ZIP9 mRNA = test: RT-PCR of ZIP9 mRNA after siRNA silencing; assay type: cell-based, rat; conditions: ZIP9-siRNA-treated 93RS2 cells
Protocol: A total of 6 × 10^4 93RS2 cells were cultured in 2-cm wells of a 6-well plate for 24 h. Thereafter, cells were treated for 48 h either with ZIP9-specific siRNA (ZIP9-siRNA; 5′GGAUUAAGUAAGAGCAGUAtt3′ and 5′UACUGCUCUUACUUAAUCCta3′) to silence ZIP9 expression or with an appropriate negative control siRNA (nc-siRNA), as described previously. ZIP9-siRNA and nc-siRNA were part of the kit Silencer® Select Pre-designed siRNA, provided by Invitrogen (Thermo Fisher Scientific, Schwerte, Germany). After the siRNA treatment, RNeasy® Mini Kit (Qiagen GmbH, Hilden, Germany) was used to isolate mRNA. The concentration of the extracted mRNA was quantified by the NanodropTM One spectrophotometer (Thermo Fisher Scientific, Schwerte, Germany). Samples were measured in duplicate and the average values were used.
RT-PCR was applied in order to assess the success of silencing ZIP9 expression by siRNA. mRNA that had been isolated from cells treated with either nc-siRNA or ZIP9-specific siRNA was processed to cDNA using the Reverse Transcription System (Promega GmbH, Mannheim, Germany) according to the protocol of the provider. A total of 1 µg cDNA, quantified by the NanodropTM One spectrophotometer, was used in the PCR-Master-Mix ready-to-load (Bio&SELL GmbH, Feucht, Germany) to detect ZIP9-specific cDNA. […]

[1] = tested on: 93RS2 Sertoli cells (tight junction formation); test: Transepithelial electrical resistance (TER) across 93RS2 monolayers; assay type: cell-based, rat; conditions: ZIP9-siRNA; 10 nM testosterone or 10 µM peptides; up to 72 h
Protocol: (§3) The medium was replaced every two days.
A total of 3 × 10^4 cells were added to 0.4-µm pore ThinCertsTM (Greiner Bio-one GmbH, Frickenhausen, Germany) arranged within 1-cm wells of a 24-well plate. Cells were cultured for 24 h. Stimulation was then carried out with either testosterone or peptides at concentrations of 0.1, 1, 10, or 100 nM (testosterone) or 0.1, 1, 10, or 100 µM (peptides). Control incubations received ethanol vehicle only. TER was determined after 0, 24, 48, and 72 h, with the first measurement being made immediately after addition of testosterone or peptides. Stimulants remained in the cell medium for the entire duration of the experiment, and during this time the medium was not renewed. A Millicell ERS-2 epithelial Volt-Ohm Meter (Merck Millipore, Darmstadt, Germany) was used to measure TER. Each experiment was repeated three times. Similar experiments were carried out after silencing expression of ZIP9 by siRNA.
Data were analyzed by GraphPad Prism4 software and by applying either the unpaired t-test with Welch’s corrections or one-way ANOVA with repeated measures and Dunnett´s comparison of all data to the control. Significance was accepted at p ≤ 0.05.

claudin-1 in 93RS2 cells = test: Immunofluorescence of claudin-1 in 93RS2 cells; assay type: cell-based, rat; conditions: 10 nM testosterone or 10 µM peptide, 24 h
[2] = tested on: CREB/ATF-1 phosphorylation (via ZIP9) in 93RS2 cells; test: Western blot of phospho-CREB/phospho-ATF-1 in 93RS2 Sertoli cells; assay type: cell-based, rat
Protocol: as §3
(§4) A total of 1 × 10^5 93RS2 cells were grown in 10-cm culture dishes as described above. Cells were then incubated for 24 h with 1% FBS before treatment with various concentrations of the peptides dissolved in medium or testosterone dissolved in ethanol; equal amounts of ethanol were also added to the peptide-treated cells and to control incubations. After 30 min of incubation the medium was removed by aspiration, and cells were washed twice with ice-cold PBS (without Ca^2+ or Mg^2+; Thermo Fisher Scientific, Darmstadt, Germany) and then lysed in 400 µL of a commercially available cell lysis buffer (Cell Signaling Technology, Frankfurt, Germany) according to the protocol of the provider. Immediately before use, 1 μM PMSF, 1× protease inhibitor cocktail (Roche, Mannheim, Germany), and 2 µg/mL pepstatin were added to the lysis buffer. All lysis steps were carried out on ice. […] After centrifugation of the lysates at 4 °C for 10 min at 13,000× g, the protein concentration in the supernatants was determined using a bicinchoninic acid (BCA) protein assay reagent kit (Pierce, Rockford, IL, USA) with inclusion of the lysis buffer in the standard curve.
(§5) For Western blotting, 10 µg of protein from cell lysates was separated by SDS-PAGE on slab gels containing 10% acrylamide and 0.3% N,N′-methylene-bis-acrylamide. […] The resulting chemiluminescence was recorded by exposure to film, which was analyzed with the software program ImageJ (freely available at http://rsbweb.nih.gov/ij/ (accessed on 31 December 2021)). Loading differences in the various Western blots were corrected by taking into consideration the optical density of bands corresponding to unphosphorylated Erk1/2 bands or total actin detected in Western blots that were run in parallel. […]
Data were analyzed by GraphPad Prism4 software and by applying either the unpaired t-test with Welch’s corrections or one-way ANOVA with repeated measures and Dunnett´s comparison of all data to the control. […]

[3] = tested on: Erk1/2 phosphorylation in 93RS2 cells; test: Immunofluorescence of phospho-Erk1/2 in 93RS2 cells; assay type: cell-based, rat; conditions: 10 nM testosterone or 10 µM peptide, 30 min, n = 3 × 25
Protocol: as §3
(§6) Each chamber of 4-chamber slides was plated with 1 × 10^4 93RS2 cells and cultured as described above to approximately 80% confluence. Incubation was then carried out with either 10 nM testosterone or 10 µM of each of the peptides or with vehicle only (control). The medium was removed by aspiration after 30 min, and cells were fixed for 15 min in absolute methanol containing DAPI (4′,6-diamidino-2-phenylindole). After aspirating the fixative, cells were treated with blocking solution (3% BSA and 0.3% Triton X-100 in PBS) for 1 h. […]
as §1, with “This medium was removed by aspiration after 1 h at room temperature and cells were washed in PBS 3 times. All incubation steps with UV-sensitive reagents were carried out in the dark.” left out
as §2, with “considered.” for “considered. The fluorescence of 3 × 25 cells closest to the diagonals of photomicrographs from 3 independent experiments was considered for statistical analysis.”

[4] = tested on: Erk1/2 phosphorylation (via ZIP9) in 93RS2 cells; test: Western blot of phospho-Erk1/2 in 93RS2 Sertoli cells; assay type: cell-based, rat
Protocol: as §3
A total of 1 × 10^5 93RS2 cells were grown in 10-cm culture dishes as described above. Cells were then incubated for 24 h with 1% FBS before treatment with various concentrations of the peptides dissolved in medium or testosterone dissolved in ethanol; equal amounts of ethanol were also added to the peptide-treated cells and to control incubations. […] After centrifugation of the lysates at 4 °C for 10 min at 13,000× g, the protein concentration in the supernatants was determined using a bicinchoninic acid (BCA) protein assay reagent kit (Pierce, Rockford, IL, USA) with inclusion of the lysis buffer in the standard curve.
as §5

claudin-5 in 93RS2 cells = test: Immunofluorescence of claudin-5 in 93RS2 cells; assay type: cell-based, rat; conditions: 10 nM testosterone or 10 µM peptide, 24 h
[5] = tested on: claudin-1 and claudin-5 expression in rodent Sertoli cells; parameters: method as in PMID 27164415, PMID 12851029, PMID 20403878, doi:10.1093/biolreprod/83.s1.109; conditions: ref [6],[29],[34],[35]; cited from earlier work
[6] = tested on: CREB/ATF-1 phosphorylation in 93RS2 cells; test: Immunofluorescence of phospho-CREB/phospho-ATF-1 in 93RS2 cells; assay type: cell-based, rat; conditions: 10 nM testosterone or 10 µM peptide, 30 min
Protocol: as §3, §6
as §1, with “This medium was removed by aspiration after 1 h at room temperature and cells were washed in PBS 3 times. All incubation steps with UV-sensitive reagents were carried out in the dark.” left out
as §2, with “considered.” for “considered. The fluorescence of 3 × 25 cells closest to the diagonals of photomicrographs from 3 independent experiments was considered for statistical analysis.”

[7] = tested on: total Erk1/2 in 93RS2 cells; test: Expression of total Erk1/2 in 93RS2 lysates; assay type: cell-based, rat; conditions: lysates of treated 93RS2 cells; data not shown
Protocol: as §4, with “provider.” for “provider. Immediately before use, 1 μM PMSF, 1× protease inhibitor cocktail (Roche, Mannheim, Germany), and 2 µg/mL pepstatin were added to the lysis buffer. All lysis steps were carried out on ice.”
For Western blotting, 10 µg of protein from cell lysates was separated by SDS-PAGE on slab gels containing 10% acrylamide and 0.3% N,N′-methylene-bis-acrylamide. […] The resulting chemiluminescence was recorded by exposure to film, which was analyzed with the software program ImageJ (freely available at http://rsbweb.nih.gov/ij/ (accessed on 31 December 2021)). […]

[8] = tested on: ZO-1 expression in 93RS2 cells; test: Immunofluorescence of ZO-1 in 93RS2 cells; assay type: cell-based, rat; conditions: 10 nM testosterone or 10 µM peptide, 24 h
[9] = tested on: androgen binding site of ZIP9 on 93RS2 cells; test: Cell-surface labeling with testosterone-BSA-FITC (displacement); conditions: 20 min; for labeling of 93RS2 cells by fluorescent conjugate: 5 µM, room temperature, no competitor, ZIP9 expressed
Protocol: Cells were cultured in a humidified incubator (37 °C, 5% CO2) in 1:1 DMEM:Ham’s F-12 medium with L-glutamine supplemented with 10% (v/v) fetal bovine serum (FBS) and 1% (v/v) penicillin/streptomycin. The medium was replaced every two days.
A total of 93 RS2 cells were cultured at a density of 5 × 10^3 cells per well in 24-well plates as described above. After reaching about 80% confluence, the cells were treated with either 10 nM testosterone or 1 µM of each of the peptides for 1 h. Both peptide-treated cells and controls were also treated with ethanol vehicle at the same concentration as other plates of cells treated with testosterone dissolved in ethanol. […] After incubation for an additional 20 min at room temperature, the medium was aspirated and cells were fixed in 400 µL ice-cold methanol containing 20 ng of 4,6-diamino-2-phenylindole (DAPI) at room temperature. This solution was aspirated after 15 min and cells were washed with 700 μL PBS. Cell imaging was carried out in 400 µL PBS using an inverse Olympus IX81 microscope (Olympus, Hamburg, Germany).
In order to account for non-specific binding, cells were incubated for 20 min with 5 µM BSA-FITC (lacking the testosterone moiety) diluted in Tris-Buffer (pH 7.2) at room temperature. After washing twice with PBS and fixing in absolute methanol containing DAPI for 15 min, images were obtained as described above.

[10] = 30 min, T 0.1-100 nM, peptides 0.1-100 µM, Western blot

5′GGAUUAAGUAAGAGCAGUAtt3′ and 5′UACUGCUCUUACUUAAUCCta3′ (chain 1 GGAUUAAGUAAGAGCAGUATT; chain 2 UACUGCUCUUACUUAAUCCTA; siRNA; chemistry not fully specified) [ZIP9-siRNA, ZIP9-specific siRNA to silence ZIP9 expression]
ZIP9-specific immunofluorescence remaining vs control conditions (ZIP9): 7.93 ± 1.1% | presence of ZIP9-specific mRNA/cDNA vs nc-siRNA (ZIP9 mRNA): greatly reduced

C[C@]12CC[C@H]3[C@@H](CCC4=CC(=O)CC[C@@]43C)[C@@H]1CC[C@@H]2O [testosterone]
TER increase, ZIP9 silenced [1]: failed to stimulate TER increase | claudin-1 distribution, ZIP9 silenced (claudin-1 in 93RS2 cells; ZIP9-siRNA): This re-distribution was not observed | claudin-1 distribution, ZIP9 expressed (claudin-1 in 93RS2 cells; nc-siRNA): triggered re-distribution of claudin-1 from the cytosol to the membranes or to the nuclei | claudin-1 expression level (claudin-1 in 93RS2 cells; nc-siRNA): do not seem to influence the expression level of claudin-1 | stimulation of CREB/ATF-1 phosphorylation, in words [2, 10]: stimulate the phosphorylation of the transcription factors CREB and ATF-1 | EC50 ([2]; Rattus norvegicus, 0.5 h, read-out: EC50 for CREB and ATF-1 phosphorylation (approximate, Discussion)): ~0.5 nM | concentration of maximum effect on CREB/ATF-1 phosphorylation ([2]; testosterone (Discussion)): 10 nM | phosphorylation of Erk1/2 by immunofluorescence, ZIP9 silenced ([3]; ZIP9-siRNA-treated cells): abolished the stimulation of Erk1/2 phosphorylation | phosphorylation of Erk1/2 by immunofluorescence, ZIP9 expressed ([3]; nc-siRNA-treated cells): triggered the phosphorylation of Erk1/2 | stimulation of Erk1/2 phosphorylation, in words [4, 10]: stimulated in a concentration-dependent manner the phosphorylation of Erk1/2 | EC50 ([4]; Rattus norvegicus, 0.5 h, read-out: EC50 for stimulation of Erk1/2 phosphorylation (approximate, Discussion)): ~0.5 nM | claudin-5 expression and localization, ZIP9 silenced (claudin-5 in 93RS2 cells; ZIP9-siRNA): Only basal levels of Claudin-5 are detected | claudin-5 expression, ZIP9 expressed (claudin-5 in 93RS2 cells; nc-siRNA): stimulated the expression of claudin-5 | claudin-1 and claudin-5 expression [5]: stimulate claudin-1 and claudin-5 expression | phosphorylation of CREB/ATF-1 by immunofluorescence, ZIP9 silenced ([6]; ZIP9-siRNA-treated cells): complete loss of the stimulatory effect | phosphorylation of CREB/ATF-1 within nuclei by immunofluorescence, ZIP9 expressed ([6]; nc-siRNA-treated cells): stimulated phosphorylation of the transcription factors within the nuclei | effect on expression of total Erk1/2 [7]: without affecting the expression of the enzyme protein | ZO-1 expression, ZIP9 silenced ([8]; ZIP9-siRNA): did not respond | ZO-1 expression, ZIP9 expressed ([8]; nc-siRNA): stimulated the expression of zona occludens (ZO-1)

BSA-FITC: BSA-FITC (lacking the testosterone moiety)
labeling of 93RS2 cells by fluorescent conjugate [9]: Relatively low signals of green fluorescence

Testosterone 3-(O-carboxymethyl)oxime:BSA-fluorescein isothiocyanate [T-BSA-FITC]
labeling of 93RS2 cells by fluorescent conjugate [9]: uniform green labeling of the extracellular surface of the cells | labeling of cell membranes by testosterone-BSA-FITC, ZIP9 silenced ([9]; ZIP9-siRNA-treated cells, 5 µM T-BSA-FITC): completely prevented
